# Test results: US6429204B1, “Method of inhibiting cancer growth” (University of Miami, priority 1997, dated 2002)
# What was measured:
# [1] = test system: DU-145 and TSU-PR1 prostate cancer cell lines; test: Prostate cancer cell viability/proliferation (trypan blue, MTT); assay type: cell-based, human
# Source text: To determine the cytotoxicity of CMTs on prostate tumor cell lines, TSU-PR1 cells (and cells of other tumor cell lines) were exposed to various CMTs or to doxycycline for 24 hr or 48 hr in a complete medium. Cell viability (percent of live cells) was estimated by counting the cells following trypan blue staining. Cellular viability was also estimated by the tetrazolium dye reduction assay (MTT assay) (Lokeshwar et al. 1995b). Due to the aggressive proliferative capacity of cancer cells, it is assumed that viable cells are actively proliferating. Therefore, the measurement of viability was used as an estimate of proliferation. Results are expressed as Mean±SEM from three separate experiments.
# [2] = test system: E-10 Cells; test: MTS cytotoxicity assay, E-10; conditions: two days
# Experimental: (§2) A panel of chemically modified tetracycline compounds and doxycycline were tested for cytotoxicity against two carcinomas: COLO 205 (a human colon carcinoma-derived cell line) and the E-10 clone of MDA-MB-231 (a human breast carcinoma-derived cell line). Cytoxicity was measured using a conventional assay for viability with a tetrazolium salt (MTS). Cells were grown in media containing the CMTs at concentrations ranging from 5 μM to 100 μM for two days. The cells were then incubated with the MTS for several hours before removal of the supernatant medium for determination of formazan, which is generated only by the viable cells. Results are expressed as percent cytotoxicity, which is simply the percent decline in measured formazan concentration in the sampled medium.
# [3] = target: T1, Gelatinase B (Homo sapiens, UniProt P14780); test: Zymography with densitometry of C8161 conditioned medium, gelatinase B; assay type: cell-based; conditions: 50 μg/mL, 24 hr
# T1 construct: endogenous in cells; host or cells: C8161
# Experimental: (§1) Six hundred thousand (6×10^5) C8161 cells were seeded per well in a 12-well dish coated with a laminin/collagen IV/gelatin matrix in DMEM plus Mito+ and 0.1% gentamicin sulfate. After approximately 1 hr incubation to allow the cells to attach, 50 μg/mL of either doxycycline or one of the other CMTs was added per well and the dish then placed in a 37° C. humidified 5% CO2 incubator. After 24 hr, the supernatants were removed and centrifuged to remove any cells or debris. One volume of Laemmli sample buffer minus reductant was added to two volumes of the medium, and this sample electrophoresed without prior heating or boiling on a 10% SDS-PAGE containing 0.1% gelatin (samples normalized based on the same number of cells per volume of medium per time of incubation). After electrophoresis, the gels were washed with gentle shaking at room temperature for 30 min in 50 mM Tris-HCl (pH 7.5) plus 2.5% TRITON® X100 plus 50 μg/mL of the corresponding CMT used in the original treatment. The gel was then placed in incubation buffer (50 mM Tris-Cl/10 mM CaCl2/150 mM NaCl/0.05% NaN3) also containing 50 μg/mL of the corresponding CMT, and incubated at 37° C. for 20-24 hr. The gels were stained with Coomassie BBR-250, then destained with 10% methanol/10% acetic acid in water until the wash remained clear. A photographic negative of the gel was digitized using a video camera and Snappy Video Snapshot system (Play Inc., Rancho Cordova, Calif.). An integrated density was determined for each of the cleared zones of proteolysis using the software ImagePC8α (freely available from the National Institutes of Health), and the corresponding changes in gelatinolytic activities reported compared to the control samples normalized to a value of 1.0.
# [4] = test system: COLO 205 Cells; test: MTS cytotoxicity assay, COLO 205; conditions: two days
# Experimental: as §2
# [5] = test system: C8161 cells; test: C8161 cell proliferation (doubling time); assay type: cell-based, human; conditions: 50 μg/mL
# Experimental: Cell Culture and Maintenance: C8161 cells, a human melanoma cell line, were maintained in Dulbecco's modified Eagle's medium (DMEM; […] These cells were routinely screened for Mycoplasma contamination using the GenProbe Rapid Detection System (Fisher Scientific; Chicago, Ill.). Chemically Modified Tetracyclines: Fresh stock solutions of the chemically modified tetracycline compounds (2 mg/mL) were prepared for each experiment by hydrating in 2% dimethyl sulfoxide (DMSO)/water pH 10, then adjusting to pH 7.4 using 1.0 M HCl. […] Sigma Chem. Co.; control) or 50 μg/mL of doxycycline or the other CMTs (three wells on each plate per compound). […] The doubling time for C8161 cells in the presence of each compound was then determined and compared to the DMSO treated cells (control).
# [6] = test system: C8161 cells; test: In vivo metastasis assay, C8161 cells i.v. in SCID mice; conditions: for Number of Lung Metastases/Mouse: Average ± SEM, control 231 ± 49
# Experimental: Immunosuppressed mice (athymic nude/nude SCID females from Harlan Sprague Dawley) were housed in autoclaved cages with microisolator tops, and all manipulations of the animals were done in a laminar flow hood after wiping down both the hood, gloves and cages with ABQ sterilant. The mice were fed sterile Pico Lab Chow (Purina) and autoclaved St. Louis tap water. […] The compounds and control (sterile water plus 2% carboxymethyl cellulose) were kept stored at −80° C. wrapped in aluminum foil to prevent any light induced changes, and each day's supply was thawed just prior to use. Four compounds were tested for their effects on the metastatic potential of C8161 cells injected intravenously via the tail vein: […] The concentration of the compounds in the vials used to give the 100 mg/kg doses were 2.5 times that in the 40 mg/kg dose so that approximately the same volume was used in both cases, approximately 0.5 mL/animal. The experiments started with nine animals per group at day −4. On day zero, 2×10^5 C8161 cells in cold Hank's Balanced Salt Solution (HBSS) were injected intravenously via tail vein inoculation. The experiment was continued for an additional 24 days, at which time the animals were sacrificed and their lungs removed and fixed in a solution of Bouins/formaldehyde (5 parts:1 part). Tumors were quantitated on the entire surface of the lungs by rotating the lungs and counting the tumors on each lobe using a 6× magnifying glass. Statistical analysis was performed using the statistical package of Microsoft's Excel spreadsheet software.
# [7] = test system: C8161 human melanoma cells; test: In vitro invasion assay (MICS), laminin/collagen IV/gelatin matrix-coated filter; assay type: cell-based; conditions: 3, 20 and 50 μg/mL
# Experimental: The in vitro invasive potentials of the control (DMSO only) and chemically-modified tetracycline treated cells were measured using a modified Boyden chamber as previously described (Membrane Invasion Culture System, MICS). An intervening barrier consisting of a polycarbonate filter containing 10 μm pores (Osmonics, Livermore, Calif.) coated with a defined matrix of human laminin/collagen IV/gelatin (Sigma, St. Louis, Mo.) was used for these studies. […] Doxycycline or individual CMTs were then added to different wells of the chamber at 3, 20 or 50 μg/mL 2 hr post-seeding and daily during the assay. After 48 hr, the cells were removed from the lower wells and the number of invasive cells was determined and compared to the original number of cells seeded into the upper wells. Where appropriate, data were corrected for proliferation during the period of the in vitro assay.
# [8] = target: T2, Gelatinase A (Homo sapiens, UniProt P08253); test: Zymography with densitometry of C8161 conditioned medium, gelatinase A; assay type: cell-based; conditions: 50 μg/mL, 24 hr
# T2 construct: endogenous in cells; host or cells: C8161
# T2 sequence (P08253 110-660): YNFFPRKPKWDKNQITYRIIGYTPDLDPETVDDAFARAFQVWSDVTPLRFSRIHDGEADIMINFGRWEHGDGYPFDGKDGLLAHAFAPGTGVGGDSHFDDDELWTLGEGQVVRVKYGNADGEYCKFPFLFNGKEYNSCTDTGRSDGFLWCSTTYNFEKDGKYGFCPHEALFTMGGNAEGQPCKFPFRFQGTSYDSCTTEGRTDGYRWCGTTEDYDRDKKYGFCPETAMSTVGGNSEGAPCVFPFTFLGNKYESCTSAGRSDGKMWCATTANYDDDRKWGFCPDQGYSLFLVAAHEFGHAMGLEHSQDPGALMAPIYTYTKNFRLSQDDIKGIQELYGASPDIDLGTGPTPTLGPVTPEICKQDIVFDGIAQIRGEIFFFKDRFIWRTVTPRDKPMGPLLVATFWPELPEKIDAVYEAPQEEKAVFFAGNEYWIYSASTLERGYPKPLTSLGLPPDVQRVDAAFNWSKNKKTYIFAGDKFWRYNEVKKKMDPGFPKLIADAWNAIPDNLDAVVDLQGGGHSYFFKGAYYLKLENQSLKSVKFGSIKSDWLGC
# Experimental: as §1
# T1 sequence (P14780 94-707): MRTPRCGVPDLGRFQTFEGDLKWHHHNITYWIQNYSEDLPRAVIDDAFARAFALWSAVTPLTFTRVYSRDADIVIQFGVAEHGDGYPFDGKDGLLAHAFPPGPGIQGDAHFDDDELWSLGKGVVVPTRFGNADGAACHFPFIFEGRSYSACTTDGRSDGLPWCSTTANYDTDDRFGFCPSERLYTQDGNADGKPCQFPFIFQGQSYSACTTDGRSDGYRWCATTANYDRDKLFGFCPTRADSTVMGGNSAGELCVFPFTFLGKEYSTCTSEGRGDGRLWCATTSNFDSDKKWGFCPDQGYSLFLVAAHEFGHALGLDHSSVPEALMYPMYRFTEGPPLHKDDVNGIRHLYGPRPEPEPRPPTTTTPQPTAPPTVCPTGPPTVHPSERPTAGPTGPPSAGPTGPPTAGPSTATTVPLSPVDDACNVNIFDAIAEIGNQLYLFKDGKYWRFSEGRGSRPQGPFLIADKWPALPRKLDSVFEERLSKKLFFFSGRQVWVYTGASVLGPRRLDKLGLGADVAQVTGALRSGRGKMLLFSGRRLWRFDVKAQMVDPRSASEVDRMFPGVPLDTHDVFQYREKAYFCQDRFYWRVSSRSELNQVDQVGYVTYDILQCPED
molecule,measurement,setting,value
tetracycline pyrazole [CMT-5],inhibition of cell proliferation,[1],not inhibitory
"CC1(O)c2cccc(O)c2C(=O)C2=C(O)C3(O)C(=O)C(C(N)=O)=C(O)CC3CC21 (stereo not drawn) [CMT-1, 4-de(dimethylamino)tetracycline]",percent cytotoxicity,[2]; 5 μM,7.6%
same,percent cytotoxicity,[2]; 10 μM,0%
same,percent cytotoxicity,[2]; 20 μM,0%
same,percent cytotoxicity,[2]; 50 μM,2.2%
same,percent cytotoxicity,[2]; 100 μM,7.6%
same,"Gelatinase B, integrated density normalized to control 1.00",[3],0.22
same,percent cytotoxicity,[4]; 5 μM,0%
same,percent cytotoxicity,[4]; 10 μM,4%
same,percent cytotoxicity,[4]; 20 μM,32.5%
same,percent cytotoxicity,[4]; 50 μM,63.8%
same,percent cytotoxicity,[4]; 100 μM,82.8%
same,Doubling Time,"[5]; on plastic, DMSO 22 hr",24 h
same,increase of doubling time,[5]; versus DMSO,approximately 9%
same,Number of Lung Metastases/Mouse,[6]; 40 mg/kg daily intragastric,129 ± 102
same,effect on number of lung metastases (significance),"[6]; 40 mg/kg daily, p<0.05",significantly reduced the number of lung metastases
same,effect on number of lung metastases (significance),[6]; 100 mg/kg,did not significantly reduce the number of lung metastases
same,Number of Lung Metastases/Mouse,[6]; 100 mg/kg daily intragastric,240 ± 28
same,Type of Inhibition,[7],dose-dependent
same,Percent Inhibition of invasive potential,[7]; 48 hr,26-58%
same,"Gelatinase A, integrated density normalized to control 1.00",[8],0.24
